Results taken from patent EP0545103A1, “Insecticidal, acaricidal and molluscicidal 1-(substituted) thioalkylpyrroles” (priority 1991, dated 1993).

Tests used:
Format in all cases: in vivo
[1] = test system: Heliothis virescens, egg, tobacco budworm; assay: Tobacco budworm egg test, dipped cotton leaf and eggs; design: key: 0: no effect; 10-25% kill; 26-35% kill; 36-45% kill; 46-55% kill; 56-65% kill; 66-75% kill; 76-85% kill; 86-99% kill; 9: 100% kill; details: 1000 ppm; mortality rating after 3 days
Protocol: (§1) Test solutions are prepared by dissolving the test compound in a 35% acetone in water mixture to give a concentration of 10,000 ppm. Subsequent dilutions are made with water as needed.
Heliothis virescens, egg, tobacco budworm
A young cotton leaf about 6-7cm in length is dipped in an agitated test suspension for about 3 seconds. Eggs are collected on a cheesecloth and the cloth is cut into 10-20mm squares, each containing approximately 50-100 eggs which are 6-30 hours old. The egg-containing cheesecloth square is similarly dipped in a test suspension and placed on a treated cotton leaf. The combination is dried in a hood and then placed in an 8 ounce Dixie® cup #2168-ST (240ml volume, 6cm tall, 9.5cm top diameter, 8.0cm bottom diameter) into which a 5cm length of damp dental wick has been placed. The cup is covered with a clear plastic lid and held for 3 days, after which mortality counts are made.
(§2) All of the above tests are rated according to the rating scale shown below.

[2] = test system: Spodoptera eridania, 3rd instar larvae, southern armyworm; assay: Southern armyworm 3rd instar test, dipped limabean leaf; details: for ARMYWORM Day 3: rating at 3 days; for ARMYWORM Day 5: rating at 5 days
Protocol: as §1
Spodoptera eridania, 3rd instar larvae, southern armyworm
A Sieva limabean leaf expanded to 7-8 cm in length is dipped in the test solution with agitation for 3 seconds and allowed to dry in a hood. The leaf is then placed in a 100 x 10 mm petri dish containing a damp filterpaper on the bottom and ten 3rd instar caterpillars. At 3 and 5 days, observations are made of mortality, reduced feeding, or any interference with normal molting.
as §2

[3] = test system: Tetranychus urticae (OP-resistant strain), 2-spotted spider mite; assay: 2-spotted spider mite test, dipped infested limabean plants; design: key: 0: no effect; 10-25% kill; 26-35% kill; 36-45% kill; 46-55% kill; 56-65% kill; 66-75% kill; 76-85% kill; 86-99% kill; 9: 100% kill; details: for OP-RESISTANT MITES Adult: mortality rating after 2 days; for OP-RESISTANT MITES Egg / OP-RESISTANT MITES Nymph: rating after 5 days
Protocol: as §1
Tetranychus urticae (OP-resistant strain), 2-spotted spider mite
Sieva limabean plants with primary leaves expanded to 7-8 cm are selected and cut back to one plant per pot. A small piece is cut from an infested leaf taken from the main colony and placed on each leaf of the test plants. This is done about 2 hours before treatment to allow the mites to move over to the test plant and to lay eggs. The size of the cut, infested leaf is varied to obtain about 100 mites per leaf. At the time of test treatment, the piece of leaf used to transfer the mites is removed and discarded. The newly mite-infested plants are dipped in the test solution for 3 seconds with agitation and set in the hood to dry. After 2 days one leaf is removed and mortality counts are made. After 5 days, another leaf is removed and observations are made of mortality of the eggs and/or newly emerged nymphs.
as §2

[4] = test system: Aphis fabae, mixed instar, bean aphid; assay: Bean aphid spray test on nasturtium; design: key: 0: no effect; 10-25% kill; 26-35% kill; 36-45% kill; 46-55% kill; 56-65% kill; 66-75% kill; 76-85% kill; 86-99% kill; 9: 100% kill; details: 100 ppm; spray; mortality rating after 2 days
Protocol: as §1
Aphis fabae, mixed instar, bean aphid
Pots containing single nasturtium plants (Tropaeolum sp.) about 5 cm tall are infested with about 100-200 aphids one day prior to treatment. Each pot is sprayed with the test solution for 2 revolutions of a 4 rpm turntable in a hood, using a #154 DeVilbiss atomizer. The spray tip is held about 15 cm from the plant and the spray directed so as to give complete coverage of the plants and the aphids. The sprayed pots are set on their sides on white enamel trays and mortality estimates are made after 2 days.
as §2

[5] = test system: Empoasca abrupta, adult, western potato leafhopper; assay: Western potato leafhopper systemic uptake test; design: key: 0: no effect; 10-25% kill; 26-35% kill; 36-45% kill; 46-55% kill; 56-65% kill; 66-75% kill; 76-85% kill; 86-99% kill; 9: 100% kill; details: 100 ppm; cut stem in emulsion 3 days; mortality rating after 2 days
Protocol: Empoasca abrupta, adult, western potato leafhopper Systemic Uptake
An emulsion containing 0.1 gm of the test material, 0.2 gm of Emulphor EL-620® emulsifier, 10 mL of acetone and 90 mL of water is prepared and diluted 10-fold with water to give a 100 ppm emulsion. Subsequent 10-fold dilutions are made with water as needed. Sieva limabean plants, with the primary leaves expanded to a length of 7-8 cm, are cut off at least 3 cm above the soil level to avoid contamination with soil bacteria which will cause decay of the stem during the test. The cut stem is placed in the test emulsion and wrapped with a bit of cotton to hold the stem off the bottom of the bottle and to limit evaporation. The treated stem is maintained for 3 days at 27°C to allow the test compound to be taken up into the plant. Following this, one leaf is removed from the plant and placed in a 100 x 10 mm petri dish containing a moist filter paper and about 10 adult leafhoppers as described above. Mortality counts are made after 2 days.
as §2

[6] = test system: Empoasca abrupta, adult, western potato leafhopper; assay: Western potato leafhopper contact test, dipped limabean leaf; details: mortality rating after 2 days
Protocol: as §1
Empoasca abrupta, adult, western potato leafhopper
A Sieva limabean leaf about 5 cm long is dipped in the test solution for 3 seconds with agitation and placed in a hood to dry. The treated leaf is placed in a 100 x 10 mm petri dish containing a moist filter paper and about 10 adult leafhoppers are added. After 2 days, mortality counts are made.
as §2

[7] = test system: Diabrotic undecimpunctata howardi, 3rd instar southern corn rootworm; assay: Southern corn rootworm soil test; design: key: 0: no effect; 10-25% kill; 26-35% kill; 36-45% kill; 46-55% kill; 56-65% kill; 66-75% kill; 76-85% kill; 86-99% kill; 9: 100% kill; details: mortality rating after 6 days
Protocol: Diabrotic undecimpunctata howardi, 3rd instar southern corn rootworm
One cc of fine talc is placed in a 30 mL wide-mouth screw-top glass jar. One mL of the appropriate acetone test solution is pipetted onto the talc so as to provide 1.25 and 0.25 mg of active ingredient per jar. The jars are set under a gentle air flow until the acetone is evaporated. The dried talc is loosened, 1 cc of millet seed is added to serve as food for the insects and 25 mL of moist soil is added to each jar. The jar is capped and the contents thoroughly mixed on a Vortex Mixer. Following this, ten 3rd instar rootworms are added to each jar and the jars are loosely capped to allow air exchange for the larvae. The treatments are held for 6 days when mortality counts are made. Missing larvae are presumed dead, since they decompose rapidly and can not be found. The concentrations used in this test correspond approximately to 50 and 10 kg/ha, respectively.
as §2

[8] = test system: Spodoptera eridania, 3rd instar larvae, southern armyworm; assay: Southern armyworm systemic uptake (stem systemic) test; design: key: 0: no effect; 10-25% kill; 26-35% kill; 36-45% kill; 46-55% kill; 56-65% kill; 66-75% kill; 76-85% kill; 86-99% kill; 9: 100% kill; details: cut stem in emulsion 3 days
Excerpt: Spodoptera eridania, systemic uptake, 3rd instar larvae, southern armyworm
Subsequent 10-fold dilutions are made with water as needed. Sieva limabean plants, with the primary leaves expanded to a length of 7-8 cm, are cut off at least 3 cm above the soil level to avoid contamination with soil bacteria which will cause decay of the stem during the test. The cut stem is placed in the test emulsion and wrapped with a bit of cotton to hold the stem off the bottom of the bottle and to limit evaporation. The treated stem is thus maintained for 3 days at 27° C to allow the test compound to be taken up into the plant. Following this, one leaf is removed from the plant and placed in a 100 x 10 mm petri dish with 10 southern armyworms as described above. Mortality counts and observations of feeding damage are made 3 and 5 days later.
as §2

[9] = test system: Heliothis virescens, 3rd instar tobacco budworm; assay: Tobacco budworm 3rd instar test, dipped cotton cotyledons; design: key: 0: no effect; 10-25% kill; 26-35% kill; 36-45% kill; 46-55% kill; 56-65% kill; 66-75% kill; 76-85% kill; 86-99% kill; 9: 100% kill; details: mortality rating after 3 days
Protocol: as §1
Heliothis virescens, 3rd instar tobacco budworm
Cotton cotyledons are dipped in the test solution and allowed to dry in a hood. When dry, each is cut into quarters and ten sections are placed individually in 30 mL plastic medicine cups containing a 5-7mm long piece of damp dental wick. One 3rd instar caterpillar is added to each cup and the cup is sealed with MYLAR® film. Treatments are maintained for 3 days before a mortality count and observation of reduction in feeding damage are made.
as §2

[10] = test system: Spodoptera eridania, 3rd instar larvae, southern armyworm; assay: Southern armyworm 7-day residual test; details: R designates Residual: 7-day residual foliage, concentration not given
Protocol: as §1
Spodoptera eridania, 3rd instar larvae, southern armyworm, 7-day residual
The limabean leaves treated in the above test are maintained under high intensity lamps in the greenhouse for 7 days. These lamps duplicate the effects of a bright sunny day in June in New Jersey and are kept on for 14 hour day length. After 7 days, the foliage is sampled and assayed as in the above-said test.
as §2

Row | SMILES | TOBACCO BUDWORM Egg [1] | ARMYWORM Day 3 ([2]; 10 ppm) | ARMYWORM Day 5 ([2]; 10 ppm) | ARMYWORM Day 3 ([2]; 100 ppm) | ARMYWORM Day 5 ([2]; 100 ppm) | ARMYWORM Day 3 ([2]; 1000 ppm) | ARMYWORM Day 5 ([2]; 1000 ppm) | OP-RESISTANT MITES Adult ([3]; 10 ppm) | OP-RESISTANT MITES Egg ([3]; 10 ppm) | OP-RESISTANT MITES Adult ([3]; 100 ppm) | OP-RESISTANT MITES Egg ([3]; 100 ppm) | OP-RESISTANT MITES Adult ([3]; 300 ppm) | OP-RESISTANT MITES Egg ([3]; 300 ppm) | OP-RESISTANT MITES Nymph ([3]; 300 ppm) | APHIDS [4] | LEAFHOPPER Systemic [5] | LEAFHOPPER Contact ([6]; 10 ppm) | LEAFHOPPER Contact ([6]; 100 ppm) | ARMYWORM Stem Sys [8] | other results
1 | CCOC(=S)SCn1c(-c2ccc(Cl)cc2)c(C#N)c(Cl)c1C(F)(F)F [Example 23] | 0 | 9 (100% kill) | 9 (100% kill) | 9 (100% kill) | 9 (100% kill) | 9 (100% kill) | 9 (100% kill) | 9 (100% kill) | 9 (100% kill) | 9 (100% kill) | 9 (100% kill) | 9 (100% kill) | 0 | 9 (100% kill) | 5 (56-65% kill) | 0 | 9 (100% kill) | 9 (100% kill) | – | SOUTHERN CORN ROOTWORM ([7]; 1 (ppm as headed)): 0
2 | CC(C)OC(=S)SCn1c(-c2ccc(Cl)cc2)c(C#N)c(Cl)c1C(F)(F)F [Example 22] | 0 | 9 (100% kill) | 9 (100% kill) | 9 (100% kill) | 9 (100% kill) | 9 (100% kill) | 9 (100% kill) | 9 (100% kill) | 9 (100% kill) | 9 (100% kill) | 9 (100% kill) | 9 (100% kill) | 0 | 9 (100% kill) | 7 (76-85% kill) | 0 | 9 (100% kill) | 9 (100% kill) | 0 | –
3 | N#Cc1c(Cl)c(C(F)(F)F)n(CSC2=NCCCN2)c1-c1ccc(Cl)cc1 [Example 5] | 0 | – | – | – | – | – | – | 0 | 0 | – | 9 (100% kill) | – | 0 | 0 | 0 | 8 (86-99% kill) | – | – | 8 (86-99% kill) | TOBACCO BUDWORM 3rd Instar ([9]; 10 ppm): 0; TOBACCO BUDWORM 3rd Instar ([9]; 100 ppm): 9 (100% kill); TOBACCO BUDWORM 3rd Instar ([9]; 1000 ppm): 9 (100% kill); OP-RESISTANT MITES Nymph ([3]; 10 ppm): 0; ARMYWORM Day 3 R ([10]; rating at 3 days): 9 (100% kill); ARMYWORM Day 5 R ([10]; rating at 5 days): 9 (100% kill); SOUTHERN CORN ROOTWORM ([7]; 50 (ppm as headed)): 0
